From US4164577A, “6-(2-Acylamino-2-arylacetamido)penicillanic acids” (priority 1977, dated 1979)
≈ marks a conversion by molar mass, not a printed value.

How the values were obtained:
Assay in all cases: in vitro antibacterial activity, minimum inhibitory concentration (agar dilution)
Type in all cases: cell-based
[1] = tested on: Pseudomonas aeruginosa M-2008; settings: ATCC15691, 20 h, read-out: Minimum Inhibitory concentration (MIC) Pseudomonas aeruginosa M-2008
Method: (§1) The compounds of this invention were tested for antibacterial activity according to the following procedure.
(§2) Nutrient broth and nutrient agar were prepared according to the conventional procedure. Nutrient agar was used as a vehicle. The stock solution was prepared at 100 μg/ml of the test material in the vehicle. Two-fold dilutions were made with the vehicle and then the diluted stock solution was added to a petri dish and solidified by chilling. Test organisms were grown in the nutrient broth for 20 hours at 37° C. The hardened surface was inoculated with a loopful of the test organism solution containing 1×10^6 cells per milliliter and incubated for 20 hours at 37° C. At the end of this period, growth of the organism was observed. […] The following Table 1 summarizes the activity of representative compounds as active antibacterial agents, and compares them with the reference drug Sulbenicillin.

[2] = tested on: Pseudomonas aeruginosa M-16; settings: ATCC15692, 20 h, read-out: Minimum Inhibitory concentration (MIC) Pseudomonas aeruginosa M-16
Method: as §1, §2

[3] = tested on: Pseudomonas aeruginosa M-12; settings: ATCC15692, 20 h, read-out: Minimum Inhibitory concentration (MIC) Pseudomonas aeruginosa M-12
Method: as §1, §2

Row | SMILES | MIC [1] | MIC [2] | MIC [3]
1 | CC1(C)S[C@@H]2[C@H](NC(=O)[C@H](NC(=O)c3nc4cc(Cl)cnc4nc3O)c3ccc(O)cc3)C(=O)N2[C@H]1C(=O)O [Compound 4] | 6.2 µg/mL (≈ 10.8 µM) | 3.1 µg/mL (≈ 5.41 µM) | 
2 | Cc1nc2nc(O)c(C(=O)N[C@@H](C(=O)N[C@@H]3C(=O)N4[C@@H]3SC(C)(C)[C@@H]4C(=O)O)c3ccc(O)cc3)nc2cc1Br [Compound 10] |  | 1.5 µg/mL (≈ 2.38 µM) | 
3 | CC1(C)S[C@@H]2[C@H](NC(=O)[C@H](NC(=O)c3nc4cccnc4nc3O)c3ccc(O)cc3)C(=O)N2[C@H]1C(=O)O [Compound 2, potassium 6-[D-2-(3-hydroxypyrido[2,3-b]pyrazine-2-carboxamido)-2-(p-hydroxyphenyl)acetamido]penicillanate] | 3.1 µg/mL | 0.78 µg/mL | < 1.5 µg/mL
4 | CC1(C)S[C@@H]2[C@H](NC(=O)[C@H](NC(=O)c3nc4cncnc4nc3O)c3ccc(O)cc3)C(=O)N2[C@H]1C(=O)O [Compound 8] |  | < 1.56 µg/mL | 
5 | CC1(C)S[C@@H]2[C@H](NC(=O)[C@H](NC(=O)c3nc4cc(Br)cnc4nc3O)c3ccc(O)cc3)C(=O)N2[C@H]1C(=O)O [Compound 6] | 3.1 µg/mL (≈ 5.02 µM) | < 1.5 µg/mL | 
6 | CC1(C)S[C@@H]2[C@H](NC(=O)C(c3ccccc3)S(=O)(=O)O)C(=O)N2[C@H]1C(=O)O (stereo partly drawn) [11 Sulbenicillin, Sulbenicillin, reference compound] | 25 µg/mL (≈ 60.3 µM) | 25 µg/mL (≈ 60.3 µM) | 25 µg/mL (≈ 60.3 µM)
